Test system: Wnt
Test: Wnt reporter screening assay: SP5 promoter (TCF/LEF) firefly luciferase in SW480 cells
Format: cell-based
Settings: Homo sapiens; SW480 colon cancer cells with SP5 promoter luciferase reporter; 24 hours after compound addition; normalized to DMSO; read-out: Wnt inhibition, IC50
Description: Another screening assay for Wnt activity is described as follows. Reporter cell lines can be generated by stably transducing cells of cancer cell lines (e.g., colon cancer) with a lentiviral construct that include a wnt-responsive promoter driving expression of the firefly luciferase gene.
Lentiviral constructs can be made in which the SP5 promoter, a promoter having eight TCF/LEF binding sites derived from the SP5 promoter, is linked upstream of the firefly luciferase gene. The lentiviral constructs can also include a hygromycin resistance gene as a selectable marker. The SP5 promoter construct can be used to transduce SW480 cells, a colon cancer cell line having a mutated APC gene that generates a truncated APC protein, leading to de-regulated accumulation of β-catenin.
Cultured SW480 cells bearing a reporter construct can be distributed at approximately 10,000 cells per well into 384 well multiwell plates. Compounds from a small molecule compound library can then be added to the wells in half-log dilutions using a three micromolar top concentration. A series of control wells for each cell type receive only buffer and compound solvent. Twenty-four hours after the addition of compound, reporter activity for luciferases can be assayed, for example, by addition of the BrightGlo luminescence reagent (Promega) and the Victor3 plate reader (Perkin Elmer). Readings can be normalized to DMSO only treated cells, and normalized activities can then be used in the IC50 calculations.

CN(C)C(=O)c1ccc2[nH]nc(-c3nc4ccccc4[nH]3)c2c1 [Compound 30, 3-(1H-benzo[d]imidazol-2-yl)-N,N-dimethyl-1H-indazole-5-carboxamide]
IC50: 2 µM

— patent publication US20110034441A1, “INDAZOLES AS WNT/B-CATENIN SIGNALING PATHWAY INHIBITORS AND THERAPEUTIC USES THEREOF” (EPITHERIX, LLC, priority 2009, published 2011)
